# Measurements from patent publication US12612380B2, “Non-lysosomal glucosylceramidase inhibitors and uses thereof” (ALECTOS THERAPEUTICS INC., priority 2019, dated 2026).
# Target: T1, GBA2 (Homo sapiens, UniProt Q9HCG7)
# T1 sequence (Q9HCG7 1-927): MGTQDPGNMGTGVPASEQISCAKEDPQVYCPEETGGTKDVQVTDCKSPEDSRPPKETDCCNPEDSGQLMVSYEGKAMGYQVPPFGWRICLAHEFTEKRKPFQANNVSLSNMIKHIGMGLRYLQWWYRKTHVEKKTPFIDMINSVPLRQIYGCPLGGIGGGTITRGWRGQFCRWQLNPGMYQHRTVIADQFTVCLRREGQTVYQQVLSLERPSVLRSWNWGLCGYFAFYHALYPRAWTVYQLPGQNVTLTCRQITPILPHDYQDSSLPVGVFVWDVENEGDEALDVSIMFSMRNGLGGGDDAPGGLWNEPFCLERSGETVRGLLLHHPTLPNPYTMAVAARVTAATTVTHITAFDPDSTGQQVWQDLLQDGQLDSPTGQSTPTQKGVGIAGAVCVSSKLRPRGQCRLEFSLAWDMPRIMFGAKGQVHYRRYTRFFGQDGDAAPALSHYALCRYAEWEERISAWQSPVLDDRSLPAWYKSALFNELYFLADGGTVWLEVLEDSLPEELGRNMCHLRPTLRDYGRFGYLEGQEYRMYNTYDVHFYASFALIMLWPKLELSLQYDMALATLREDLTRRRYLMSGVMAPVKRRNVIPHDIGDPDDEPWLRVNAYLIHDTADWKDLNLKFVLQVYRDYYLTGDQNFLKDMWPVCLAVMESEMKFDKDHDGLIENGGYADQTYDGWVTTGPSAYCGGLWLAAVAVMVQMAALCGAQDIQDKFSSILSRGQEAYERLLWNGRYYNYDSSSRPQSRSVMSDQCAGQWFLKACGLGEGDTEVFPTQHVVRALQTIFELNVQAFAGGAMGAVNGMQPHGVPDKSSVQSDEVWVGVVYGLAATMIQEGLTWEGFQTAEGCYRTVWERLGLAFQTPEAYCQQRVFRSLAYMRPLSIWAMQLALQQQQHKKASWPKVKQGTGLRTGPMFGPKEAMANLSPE
# Assay: Determination of IC50 values for inhibition of GBA2 in cell lysate
# Format: biochemical
# Parameters: host or cells: HEK293T (lentiviral transduction, puromycin selection); used as cellular homogenate
# Conditions: cellular homogenate of HEK293T cells overexpressing human GBA2, 250 μM 4-methylumbelliferone-β-D glucopyranoside, pH 5.5, 37° C., GCase inhibitor present; read-out: GBA2 IC50
# Text: Assay for Determination of IC50 Values for Inhibition of GBA2 in Cell Lysate
# Stable GBA2-expressing HEK293T cells were generated as follows. The PCR-amplified human GBA2 (GBA2 nucleotide accession number BC011363) using the following primers: Sense 5′---CGCAAATGGGCGGTAGGCGTG (SEQ ID NO:2)---3′ and antisense 5′---TAGTCAGCCATGGGGCGGAGA (SEQ ID NO:3)---3′) was cloned into pLenti-GIII-CMV by ABM Inc. The correctness of the construct was verified by sequencing. Lentivirus particles containing GBA2 in the pLenti-GIII-CMV plasmid were prepared using a third Generation Virus Packaging Mix (ABM cat #LV053-G074) in HEK293T cells and supplied as a virus particle suspension. The virus suspension was used for infection of HEK293T cells. Cell populations stably expressing human GBA2 were selected using puromycin for several weeks as determined by activity assays and western blot.
# Various concentrations of test compounds were prepared in DMSO and then diluted into buffer consisting of 100 mM citric acid, 200 mM disodium phosphate with 1% v/v C10E6, pH 5.5. Cellular homogenates (0.25 mg/mL) of the stable HEK293T-overexpressing GBA2 cell line were preincubated for 10 min on ice with an inhibitor of GCase (20 μM (6R,7R,8S)-8-ethyl-4-azaspiro[2.5]octane-6,7-diol). The reaction solution consisted of 20 μL of 750 μM 4-methylumbelliferone-β-D glucopyranoside in 5% DMSO in the same buffer, 20 μL of GBA2-cellular homogenate pre-treated with (6R,7R,8S)-8-ethyl-4-azaspiro[2.5]octane-6,7-diol and 20 μL of various concentrations of test compound in 10% DMSO in the same buffer. The final concentrations in the reaction were 0.083 mg/mL GBA2-cellular homogenate, 250 μM 4-methylumbelliferone-β-D glucopyranoside, and various concentrations of inhibitor. The inhibitor and GBA2-cellular homogenate were preincubated together for 5 min at 37° C. The reaction was initiated by addition of substrate and allowed to proceed for 20 min at 37° C. to assess GBA2 activity. Reactions were stopped by the addition of an equal volume (60 μL) of 0.5 M NaOH, 0.3 M glycine, pH 10.5. Fluorescence was measured on a Biotek Synergy H4 plate reader at wavelengths of 365 nm for excitation and 450 nm for emission. Incubations without added enzyme or added inhibitors were used to define no enzyme activity and maximal enzyme activity, respectively. IC50 values were determined by fitting the data to a log[inhibitor concentration] versus response curve using GraphPad Prism. IC50 values were calculated as the concentration of inhibitor required to inhibit GBA2 activity by 50%.
row,SMILES,IC50
1,"C[C@@H]1[C@@H](O)[C@H](O)[C@@H](O)CN1CCCc1ccccc1 [Example 77, (2R,3R,4R,5S)-2-methyl-1-(3-phenylpropyl)piperidine-3,4,5-triol]",< 100 nM
2,"C[C@@H]1[C@@H](O)[C@H](O)[C@@H](O)CN1CCCc1ccccc1F [Example 78, (2R,3R,4R,5S)-1-(3-(2-fluorophenyl)propyl)-2-methylpiperidine-3,4,5-triol]",< 100 nM
3,"C[C@@H]1[C@@H](O)[C@H](O)[C@@H](O)CN1CCCc1ccc(F)cc1 [Example 79, (2R,3R,4R,5S)-1-(3-(4-fluorophenyl)propyl)-2-methylpiperidine-3,4,5-triol]",< 100 nM
4,"C[C@@H]1[C@@H](O)[C@H](O)[C@@H](O)CN1CCCc1cccs1 [Example 80, (2R,3R,4R,5S)-2-methyl-1-(3-(thiophen-2-yl)propyl)piperidine-3,4,5-triol]",< 100 nM
5,"C[C@@H]1[C@@H](O)[C@H](O)[C@@H](O)CN1CCCc1ccsc1 [Example 81, (2R,3R,4R,5S)-2-methyl-1-(3-(thiophen-3-yl)propyl)piperidine-3,4,5-triol]",< 100 nM
6,"C[C@@H]1[C@@H](O)[C@H](O)[C@@H](O)CN1CC1CCN(c2ccccc2)CC1 [Example 82, (2R,3R,4R,5S)-2-methyl-1-((1-phenylpiperidin-4-yl)methyl)piperidine-3,4,5-triol]",100 to 1000 nM
7,"C[C@@H]1[C@@H](O)[C@H](O)[C@@H](O)CN1CC1CCN(c2ccccc2F)CC1 [Example 83, (2R,3R,4R,5S)-1-((1-(2-fluorophenyl)piperidin-4-yl)methyl)-2-methylpiperidine-3,4,5-triol]",< 100 nM
8,"C[C@@H]1[C@@H](O)[C@H](O)[C@@H](O)CN1CC1CCN(c2cccc(F)c2)CC1 [Example 84, (2R,3R,4R,5S)-1-((1-(3-fluorophenyl)piperidin-4-yl)methyl)-2-methylpiperidine-3,4,5-triol]",< 100 nM
9,"C[C@@H]1[C@@H](O)[C@H](O)[C@@H](O)CN1CC1CCN(c2ccc(C(F)(F)F)cc2)CC1 [Example 86, (2R,3R,4R,5S)-2-methyl-1-((1-(4-(trifluoromethyl)phenyl)piperidin-4-yl)methyl)piperidine-3,4,5-triol]",< 100 nM
10,"C[C@@H]1[C@@H](O)[C@H](O)[C@@H](O)CN1CC1(C)CCN(c2ccccc2)CC1 [Example 87, (2R,3R,4R,5S)-2-methyl-1-((4-methyl-1-phenylpiperidin-4-yl)methyl)piperidine-3,4,5-triol]",1000 to 25000 nM
11,"C[C@@H]1[C@@H](O)[C@H](O)[C@@H](O)CN1CC1(F)CCN(c2ccccc2)CC1 [Example 88, (2R,3R,4R,5S)-1-((4-fluoro-1-phenylpiperidin-4-yl)methyl)-2-methylpiperidine-3,4,5-triol]",100 to 1000 nM
12,"C[C@@H]1[C@@H](O)[C@H](O)[C@@H](O)CN1CCC1CCN(c2ccccc2)CC1 [Example 89, (2R,3R,4R,5S)-2-methyl-1-(2-(1-phenylpiperidin-4-yl)ethyl)piperidine-3,4,5-triol]",< 100 nM
13,"C[C@@H]1[C@@H](O)[C@H](O)[C@@H](O)CN1CC1CCN(c2cccnc2)CC1 [Example 90, (2R,3R,4R,5S)-2-methyl-1-((1-(pyridin-3-yl)piperidin-4-yl)methyl)piperidine-3,4,5-triol]",1000 to 25000 nM
14,"C[C@@H]1[C@@H](O)[C@H](O)[C@@H](O)CN1CC1CCN(CC(F)(F)F)CC1 [Example 91, (2R,3R,4R,5S)-2-methyl-1-((1-(2,2,2-trifluoroethyl)piperidin-4-yl)methyl)piperidine-3,4,5-triol]",100 to 1000 nM
15,"CC(C)C(=O)N1CCC(CN2C[C@H](O)[C@@H](O)[C@H](O)[C@H]2C)CC1 [Example 92, 2-methyl-1-(4-(((2R,3R,4R,5S)-3,4,5-trihydroxy-2-methylpiperidin-1-yl)methyl)piperidin-1-yl)propan-1-one]",1000 to 25000 nM
16,"C[C@@H]1[C@@H](O)[C@H](O)[C@@H](O)CN1CC1CCN(C(=O)C(C)(C)C)CC1 [Example 93, 2,2-dimethyl-1-(4-(((2R,3R,4R,5S)-3,4,5-trihydroxy-2-methylpiperidin-1-yl)methyl)piperidin-1-yl)propan-1-one]",100 to 1000 nM
17,"CCCC(=O)N1CCC(CN2C[C@H](O)[C@@H](O)[C@H](O)[C@H]2C)CC1 [Example 94, 1-(4-(((2R,3R,4R,5S)-3,4,5-trihydroxy-2-methylpiperidin-1-yl)methyl)piperidin-1-yl)butan-1-one]",1000 to 25000 nM
18,"CC(C)CC(=O)N1CCC(CN2C[C@H](O)[C@@H](O)[C@H](O)[C@H]2C)CC1 [Example 95, 3-methyl-1-(4-(((2R,3R,4R,5S)-3,4,5-trihydroxy-2-methylpiperidin-1-yl)methyl)piperidin-1-yl)butan-1-one]",100 to 1000 nM
19,"C[C@@H]1[C@@H](O)[C@H](O)[C@@H](O)CN1CC1CCN(C(=O)CC(C)(C)C)CC1 [Example 96, 3,3-dimethyl-1-(4-(((2R,3R,4R,5S)-3,4,5-trihydroxy-2-methylpiperidin-1-yl)methyl)piperidin-1-yl)butan-1-one]",100 to 1000 nM
20,"C[C@@H]1[C@@H](O)[C@H](O)[C@@H](O)CN1CC1CCN(C(=O)CC2CCCC2)CC1 [Example 97, 2-cyclopentyl-1-(4-(((2R,3R,4R,5S)-3,4,5-trihydroxy-2-methylpiperidin-1-yl)methyl)piperidin-1-yl)ethanone]",100 to 1000 nM
21,"C[C@@H]1[C@@H](O)[C@H](O)[C@@H](O)CN1CC1CCN(C(=O)C2CC2)CC1 [Example 98, cyclopropyl(4-(((2R,3R,4R,5S)-3,4,5-trihydroxy-2-methylpiperidin-1-yl)methyl)piperidin-1-yl)methanone]",1000 to 25000 nM
22,"C[C@@H]1[C@@H](O)[C@H](O)[C@@H](O)CN1CC1CCN(C(=O)C2CCC2)CC1 [Example 99, cyclobutyl(4-(((2R,3R,4R,5S)-3,4,5-trihydroxy-2-methylpiperidin-1-yl)methyl)piperidin-1-yl)methanone]",100 to 1000 nM
23,"C[C@@H]1[C@@H](O)[C@H](O)[C@@H](O)CN1CC1CCN(C(=O)C2CCCC2)CC1 [Example 100, cyclopentyl(4-(((2R,3R,4R,5S)-3,4,5-trihydroxy-2-methylpiperidin-1-yl)methyl)piperidin-1-yl)methanone]",100 to 1000 nM
24,"C[C@@H]1[C@@H](O)[C@H](O)[C@@H](O)CN1CC1CCN(C(=O)C2CCCCC2)CC1 [Example 101, cyclohexyl(4-(((2R,3R,4R,5S)-3,4,5-trihydroxy-2-methylpiperidin-1-yl)methyl)piperidin-1-yl)methanone]",100 to 1000 nM
25,"C[C@@H]1[C@@H](O)[C@H](O)[C@@H](O)CN1CC1CCN(C(=O)[C@H]2CC[C@@H](C(C)(C)C)CC2)CC1 [Example 102, ((1s,4S)-4-(tert-butyl)cyclohexyl)(4-(((2R,3R,4R,5S)-3,4,5-trihydroxy-2-methylpiperidin-1-yl)methyl)piperidin-1-yl)methanone]",< 100 nM
